Assay type in all cases: in vitro ADME
Series [1] can be described thus: Microsomal stability assay (half-life), human. The following applies: Human microsomes, read-out: Microsomal stability T1/2. An excerpt:
(§1) Table 20 provides results of in vitro and in vivo pharmacokinetics performed for each of the represented compounds.

The nature of series [2]: Microsomal stability assay (half-life), mouse. The following applies: Mouse (CD1) microsomes, read-out: Microsomal stability T1/2.
Text: as §1

Series [3] is described as follows: Microsomal stability assay (half-life), rat. The following applies: Rat (SD) microsomes, read-out: Microsomal stability T1/2.
Text: as §1

The nature of series [4]: Protein binding via Rapid Equilibrium Dialysis - plasma. The following applies: Rat (SD) plasma, 2 μM.
Text: as §1
On the technique in general: In equilibrium dialysis free small molecules cross a membrane that holds back macromolecules.

This note sets out measurements from US20220117958A1, “COMPOSITIONS AND METHODS FOR INHIBITING ACSS2” (THE TRUSTEES OF THE UNIVERSITY OF PENNSYLVANIA, priority 2018, published 2022).

SMILES strings stand for the structures.

Turning to `CCOc1ccc2ccc(=O)oc2c1` [7-Ethoxycoumarin, reference compound], the half-life at 2 μM in series [1] was 7.97 min; in series [2], under 15 min; in series [3], 6.13 min.
As for `CC(=O)CC(c1ccccc1)c1c(O)c2ccccc2oc1=O` (stereo not shown) [Warfarin, reference compound], the “Protein binding, plasma: % Protein free” value in series [4] turned out to be 0.5177 % Protein free.
